Biological target: T1, c-MET (HGFR) (Homo sapiens, UniProt P08581)
T1 construct: purchased Upstate 14-526
Assay: HGFR Continuous-Coupled Spectrophotometric Assay
Type: biochemical
Conditions: for Ki: Met-2 substrate peptide, 50 nM HGFR, 37° C., read-out: c-Met Ki
Excerpt: The following in vitro assay may be used to determine the level of activity and effect of the different compounds of the present invention on one or more of the PKs. Similar assays can be designed along the same lines for any PK using techniques well known in the art.
The general procedure is as follows: compounds and kinase assay reagents are introduced into test wells. The assay is initiated by addition of the kinase enzyme. Enzyme inhibitors reduce the measured activity of the enzyme.
In the continuous-coupled spectrophotometric assay the time-dependent production of ADP by the kinase is determined by analysis of the rate of consumption of NADH by measurement of the decrease in absorbance at 340 nm. As the PK produces ADP it is re-converted to ATP by reaction with phosphoenol pyruvate and pyruvate kinase. Pyruvate is also produced in this reaction. Pyruvate is subsequently converted to lactate by reaction with lactate dehydrogenase, which simultaneously converts NADH to NAD.
HGFR Continuous-Coupled Spectrophotometric Assay
This assay analyzes the tyrosine kinase activity of HGFR on the Met-2 substrate peptide, a peptide derived from the activation loop of the HGFR.
• 1. […] Dissolve up in 200 mM HEPES, pH 7.5 at 10 mM stock. • 3. 1 M PEP (phospho-enol-pyruvate) in 200 mM HEPES, pH 7.5 • 4. 100 mM NADH (B-Nicotinamide Adenine Dinucleotide, Reduced Form) in 200 mM HEPES, pH 7.5 • 5. 4 M MgCl2 (Magnesium Chloride) in ddH2O • 6. 1 M DTT (Dithiothreitol) in 200 mM HEPES, pH 7.5 • 7. 15 Units/mL LDH (Lactic Dehydrogenase) • 8. 15 Units/mL PK (Pyruvate Kinase) • 9. 5M NaCl dissolved in ddH2O • 10. Tween-20 (Protein Grade) 10% Solution • 11. 1 M HEPES buffer: (N-[2-Hydroxethyl]piperazine-N-[2-ethanesulfonic acid]) Sodium Salt. Dissolve in ddH2O, adjust pH to 7.5, bring volume to 1 L. Filter at 0.1 μm. • 12. […] 100% DMSO (SIGMA) • 14. […] Beckman DU-650 w/micro cell holders • 18. Beckman 4-position micro cell cuvette Procedure:
Prep Dilution Buffer (DB) for Enzyme (For 30 mL prep) • 1. DB final concentration is 2 mM DTT, 25 mM NaCl2, 5 mM MgCl2, 0.01% Tween-20, and 50 mM HEPES buffer, pH 7.5. • 2. Make up 50 mM HEPES by adding 1.5 mL 1 M HEPES into 28.1 mL of ddH2O. Add rest of the reagents. Into 50 mL conical vial, add 60 μL of 1M DTT, 150 μL 5M NaCl2, 150 μL 1M MgCl2, and 30 μL of 10% Tween-20 to give total volume of 30 mL. • 3. […] Aliquot out DB at 1 mL/tube and label tubes as “DB HGFR” • 5. Note: This can be prepared and stored ahead of time. • 6. Freeze un-used aliquots in microcentrifuge tubes at −20° C. freezer. […] For compound dilution plate, add 4 μL of 10 mM stock into column 1 of plate, and bring volume to 100 μL with 100% DMSO. • 2. Set up the Precision 2000 dilution method. A final concentration of 200 μM compound in 50% DMSO, 100 mM HEPES (1:2 serial dilution). Prep Coupled Enzymatic Buffer:
1. Final concentration in assay:
• 2. For a 10 mL reaction buffer add 10 μL of 1M PEP, 33 μL of 100 mM NADH, 50 μL of 4M MgCl2, 20 μL of 1M DTT, 6 μL of 500 mM ATP, and 500 μL of 10 mM Met-2 peptide into 100 mM HEPES buffer pH 7.5 and vortex/mix. • 3. Add coupling enzymes, LDH and PK, into reaction mix. Mix by gentle inversion. Running Samples
1. Spectrophotometer settings:
• 2. Add 85 μL of CE reaction mix into each well of assay plate. • 3. Add 5 μL of diluted compound into a well of the assay plate. • 4. Add 5 μL of 50% DMSO for negative control into last column of assay plate. • 5. Mix with multi-channel pipettor or orbital shaker. • 6. Pre-incubate for 10 minutes at 37° C. • 7. Add 10 μL of 500 nM HGFR to each well of assay plate; the final HGFR concentration is 50 nM in a total final volume of 100 μL. • 8. Measure activity for 10 minutes at λ=340 nm and 37° C.

T1 sequence (P08581 974-1390 limits assumed): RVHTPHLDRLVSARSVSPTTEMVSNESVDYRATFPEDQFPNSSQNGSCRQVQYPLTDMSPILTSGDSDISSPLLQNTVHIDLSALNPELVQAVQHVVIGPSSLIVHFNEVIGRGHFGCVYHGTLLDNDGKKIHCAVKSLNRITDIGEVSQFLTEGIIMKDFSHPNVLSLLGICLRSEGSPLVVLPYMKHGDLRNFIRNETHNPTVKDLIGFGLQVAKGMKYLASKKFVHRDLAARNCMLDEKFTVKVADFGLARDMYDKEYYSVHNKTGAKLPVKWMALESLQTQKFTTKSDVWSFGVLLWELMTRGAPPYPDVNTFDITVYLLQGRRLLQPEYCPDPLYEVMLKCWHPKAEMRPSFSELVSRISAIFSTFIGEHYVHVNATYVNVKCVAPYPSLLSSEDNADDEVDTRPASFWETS

## CC(Oc1cc(-c2cnn(C3CCN(S(C)(=O)=O)CC3)c2)cnc1N)c1c(Cl)ccc(F)c1Cl (centres unmarked) [Example 50, 3-[1-(2,6-Dichloro-3-fluoro-phenyl)-ethoxy]-5-[1-(1-methanesulfonyl-piperidin-4-yl)-1H-pyrazol-4-yl]-pyridin-2-ylamine]
  Ki: 10 nM

## Nc1ncc(-c2cn[nH]c2)cc1OC1CCCCc2ccc(F)cc21 (centres unmarked) [Example 54, 3-(3-Fluoro-6,7,8,9-tetrahydro-5H-benzocyclohepten-5-yloxy)-5-(1H-pyrazol-4-yl)-pyridin-2-ylamine]
Test concentration not given
  c-Met % Inhibition: 21%

## CCN(CC)C(=O)C(C)(C)n1cc(-c2cnc(N)c(OC(C)c3c(Cl)ccc(F)c3Cl)c2)cn1 (centres unmarked) [Example 55, 2-(4-{6-Amino-5-[1-(2,6-dichloro-3-fluoro-phenyl)-ethoxy]-pyridin-3-yl}-pyrazol-1-yl)-N,N-diethyl-isobutyramide]
  Ki: 396 nM

## CC(Oc1cc(-c2cnn(C(C)(C)C(=O)N3CC[C@H](O)C3)c2)cnc1N)c1c(Cl)ccc(F)c1Cl (stereo partly drawn) [Example 56, 2-(4-{6-Amino-5-[1-(2,6-dichloro-3-fluoro-phenyl)-ethoxy]-pyridin-3-yl}-pyrazol-1-yl)-1-((S)-3-hydroxy-pyrrolidin-1-yl)-2-methyl-propan-1-one]
  Ki: 470 nM

## CC(Oc1cc(-c2cnn(C(C)(C)C(=O)N3CCCC3)c2)cnc1N)c1c(Cl)ccc(F)c1Cl (centres unmarked) [Example 57, 2-(4-{6-Amino-5-[1-(2,6-dichloro-3-fluoro-phenyl)-ethoxy]-pyridin-3-yl}-pyrazol-1-yl)-2-methyl-1-pyrrolidin-1-yl-propan-1-one]
  Ki: 425 nM

## CC(Oc1cc(-c2cnn(C(C)(C)C(=O)N(C)C)c2)cnc1N)c1c(Cl)ccc(F)c1Cl (centres unmarked) [Example 58, 2-(4-{6-Amino-5-[1-(2,6-dichloro-3-fluoro-phenyl)-ethoxy]-pyridin-3-yl}-pyrazol-1-yl)-N,N-dimethyl-isobutyramide]
  Ki: 125 nM

## CC(Oc1cc(-c2cnn(C(C)(C)CO)c2)cnc1N)c1c(Cl)ccc(F)c1Cl (centres unmarked) [Example 59, 2-(4-{6-Amino-5-[1-(2,6-dichloro-3-fluoro-phenyl)-ethoxy]-pyridin-3-yl}-pyrazol-1-yl)-2-methyl-propan-1-ol]
  Ki: 14 nM

## CC(Oc1cc(-c2cnn(C(C)(C)CN(C)C)c2)cnc1N)c1c(Cl)ccc(F)c1Cl (centres unmarked) [Example 60, 3-[1-(2,6-Dichloro-3-fluoro-phenyl)-ethoxy]-5-[1-(2-dimethylamino-1,1-dimethyl-ethyl)-1H-pyrazol-4-yl]-pyridin-2-ylamine]
  Ki: 84 nM

## CC(Oc1cc(-c2cnn(C(C)(C)CN3CC[C@H](O)C3)c2)cnc1N)c1c(Cl)ccc(F)c1Cl (stereo partly drawn) [Example 61, (S)-1-[2-(4-{6-Amino-5-[1-(2,6-dichloro-3-fluoro-phenyl)-ethoxy]-pyridin-3-yl}-pyrazol-1-yl)-2-methyl-propyl]-pyrrolidin-3-ol]
  Ki: 70 nM

## CC(Oc1cc(-c2cnn(C(C)(C)COCCN3CCCC3)c2)cnc1N)c1c(Cl)ccc(F)c1Cl (centres unmarked) [Example 62, 3-[1-(2,6-Dichloro-3-fluoro-phenyl)-ethoxy]-5-{1-[1,1-dimethyl-2-(2-pyrrolidin-1-yl-ethoxy)-ethyl]-1H-pyrazol-4-yl}-pyridin-2-ylamine]
  Ki: 229 nM

## CC(Oc1cc(-c2cnn(C[C@H]3CCCN3)c2)cnc1N)c1c(Cl)ccc(F)c1Cl (stereo partly drawn) [Example 63, 3-[1-(2,6-Dichloro-3-fluoro-phenyl)-ethoxy]-5-(1-(R)-1-pyrrolidin-2-ylmethyl-1H-pyrazol-4-yl)-pyridin-2-ylamine]
  Ki: 72 nM

## CC(Oc1cc(-c2cnn(C[C@@H]3CCCN3)c2)cnc1N)c1c(Cl)ccc(F)c1Cl (stereo partly drawn) [Example 64, 3-[1-(2,6-Dichloro-3-fluoro-phenyl)-ethoxy]-5-(i-(S)-1-pyrrolidin-2-ylmethyl-1H-pyrazol-4-yl)-pyridin-2-ylamine]
  Ki: 41.5 nM

## C[C@@H](Oc1nc(-c2cnn(C3CCNCC3)c2)cnc1N)c1c(Cl)ccc(F)c1Cl [Example 66, 3-[(R)-1-(2,6-Dichloro-3-fluoro-phenyl)-ethoxy]-5-(1-piperidin-4-yl-1H-pyrazol-4-yl)-pyrazin-2-ylamine]
  Ki: 10 nM

## C[C@@H](Oc1nc(-c2cn[nH]c2)cnc1N)c1c(Cl)ccc(F)c1Cl [Example 67, 3-[(R)-1-(2,6-Dichloro-3-fluoro-phenyl)-ethoxy]-5-(1H-pyrazol-4-yl)-pyrazin-2-ylamine]
  Ki: 65 nM

## C[C@@H](Oc1nc(-c2cnn(C3CCN(C(=O)CO)CC3)c2)cnc1N)c1c(Cl)ccc(F)c1Cl [Example 68, 1-[4-(4-{5-Amino-6-[(R)-1-(2,6-dichloro-3-fluoro-phenyl)-ethoxy]-pyrazin-2-yl}-pyrazol-1-yl)-piperidin-1-yl]-2-hydroxy-ethanone]
  Ki: 15 nM

## C[C@@H](Oc1nc(-c2cnn(C3CCN(C)CC3)c2)cnc1N)c1c(Cl)ccc(F)c1Cl [Example 69, 3-[(R)-1-(2,6-Dichloro-3-fluoro-phenyl)-ethoxy]-5-[1-(1-methyl-piperidin-4-yl)-1H-pyrazol-4-yl]-pyrazin-2-ylamine]
  Ki: 30 nM

## C[C@@H](Oc1nc(-c2cnn(C3CCN(C(=O)CN(C)C)CC3)c2)cnc1N)c1c(Cl)ccc(F)c1Cl [Example 70, 1-[4-(4-{5-Amino-6-[(R)-1-(2,6-dichloro-3-fluoro-phenyl)-ethoxy]-pyrazin-2-yl}-pyrazol-1-yl)-piperidin-1-yl]-2-dimethylamino-ethanone]
  Ki: 15 nM

## CC(Oc1cc(-c2cnn(S(C)(=O)=O)c2)cnc1N)c1c(Cl)ccc(F)c1Cl (centres unmarked) [Example 71, 3-[1-(2,6-Dichloro-3-fluoro-phenyl)-ethoxy]-5-(1-methanesulfonyl-1H-pyrazol-4-yl)-pyridin-2-ylamine]
  Ki: 170 nM

## C[C@@H](Oc1cc(-c2cnn(C3CCNCC3)c2)cnc1N)c1c(F)ccc(F)c1Cl [Example 72, 3-[(R)-1-(2-Chloro-3,6-difluoro-phenyl)-ethoxy]-5-(1-piperidin-4-yl-1H-pyrazol-4-yl)-pyridin-2-ylamine]
  Ki: 90 nM

## CNCCn1cc(-c2cnc(N)c(OC(C)c3c(Cl)ccc(F)c3Cl)c2)cn1 (centres unmarked) [Example 73, 3-[1-(2,6-Dichloro-3-fluoro-phenyl)-ethoxy]-5-[1-(2-methylamino-ethyl)-1H-pyrazol-4-yl]-pyridin-2-ylamine]
  Ki: 55 nM

## CC(Oc1cc(-c2ccn(C3CCNCC3)n2)cnc1N)c1c(Cl)ccc(F)c1Cl (centres unmarked) [Example 75, 3-[1-(2,6-Dichloro-3-fluoro-phenyl)-ethoxy]-5-(1-piperidin-4-yl-1H-pyrazol-3-yl)-pyridin-2-ylamine]
  Ki: 38 nM

## Cc1ccn(-c2cnc(N)c(OC(C)c3c(Cl)ccc(F)c3Cl)c2)n1 (centres unmarked) [Example 77, 3-[1-(2,6-Dichloro-3-fluoro-phenyl)-ethoxy]-5-(3-methyl-pyrazol-1-yl)-pyridin-2-ylamine]
  Ki: 1920 nM

## CC(Oc1cc(-n2ncc3ccccc32)cnc1N)c1c(Cl)ccc(F)c1Cl (centres unmarked) [Example 78, 3-[1-(2,6-Dichloro-3-fluoro-phenyl)-ethoxy]-5-indazol-1-yl-pyridin-2-ylamine]
  Ki: 1560 nM

— patent publication US20060128724A1, “Pyrazole-substituted aminoheteroaryl compounds as protein kinase inhibitors” (AGOURON PHARMACEUTICALS, INC., priority 2004, published 2006)
